# Patent publication US8785483B2, “Methods for treating COPD” (The Board of Regents of the University of Texas System, priority 2010, dated 2014)
# Experiments:
# SAEC = experiment: IL-13-induced ROS levels (H2DCF-DA fluorescence); format: cell-based, human; conditions: fidarestat 10 μM overnight, IL-13 25 ng/ml 1 h
# Description: FIGS. 3A-3B. Inhibition of AR prevents IL-13-induced reactive oxygen species (ROS) production in SAEC. (A) Approximately 5×10^4 cells were seeded on 2-chambered slides and starved in serum-free basal medium without or with fidarestat overnight. The cells were washed with 1×HBSS and incubated with 10 μM H2DCF-DA at 37° C. for 30 min, washed again and treated with IL-13 (25 ng/ml) for 1 h. The cells were washed with cold 1×HBSS twice and mounted using floursave mounting medium with DAPI. Photomicrographs were acquired using a fluorescence microscope (Nikon). A representative image is shown (n=4); Magnification 400×. (B) Approximately 10,000 SAEC were plated per well in a 96-well plate and serum-starved for 24 h without or with fidarestat. […] At the end of the treatment, cells were washed twice with HBSS and fluorescence was determined at 485 nm excitation and 538 nm emission wavelengths. Relative ROS production is expressed as mean fluorescence intensity (MFI) (arbitrary units). […] The cells on the culture slide were mounted using floursave mounting medium with DAPI after which photomicrographs were acquired using a fluorescence microscope (Nikon). Fluorescence was determined using 485 nm excitation and 538 nm emission wavelengths for cells in 96-well plate and relative ROS production is expressed as mean fluorescence intensity (MFI) (arbitrary units).
# JAK1 = experiment: Western blot of JAK1 phosphorylation in airway epithelial monolayer; format: cell-based, human
# Description: FIG. 7. AR inhibition prevents IL-13-induced phosphorylation of JAK-1, ERK1/2 and STAT-6 in airway epithelial monolayer. The ciliated monolayer of airway cells at ALI was treated with AR inhibitor for 24 h and stimulated with IL-13 for different time periods as indicated. At the end of incubation, cells were lysed and cell lysate was subjected to western blotting using antibodies against phosphorylated and nonphosphorylated JAK-1, ERK1/2 and STAT-6 to analyze the activation of these signaling proteins. A representative blot is shown (n=4). #p<0.001 vs Control; *p<0.01 and **p<0.001 vs IL-13. For air-liquid interface (ALI) culture, SAEC were seeded at 8.5×10^4 cells/12-mm-diameter PET transparent insert with […] pores (12-well millicell culture insert; Millipore) and pre-coated with rat tail collagen type-1 (Sigma-Aldrich). The cells were grown submerged in the differentiation medium as described earlier by Zhen et al. (Am J Respir Cell Mol Biol 36: 244-253, 2007). […] Protein levels were determined using Bradford reagent (Biorad, Hercules, Calif.). […] The blots were then washed, exposed to HRP-conjugated secondary antibodies (1:5,000 dilution) for 1 h, and the antigen-antibody complex was detected by enhanced chemiluminescence (Amersham Pharmacia Biotech, Piscataway, N.J., USA). […]
smiles,measurement,setting,value
"NC(=O)[C@@H]1C[C@]2(NC(=O)NC2=O)c2cc(F)ccc2O1 [fidarestat, (2S,4S)-2-aminoformyl-6-fluoro-spiro[chroman-4,4′-imidazolidine]-2′,5′-dione]",prevention of IL-13-induced increase in ROS levels,SAEC,80%
same,IL-13-induced phosphorylation of JAK1,"JAK1; ALI monolayer, AR inhibitor 24 h prior to IL-13",decreased significantly
same,basal phosphorylation of JAK1,"JAK1; AR inhibitor alone, no IL-13",decreased
